Where a name gives a salt, the structure may show the parent alone.
Columns and labels:
[1] = system: BRCA-1 silenced HeLa cells (HeLa shBRCA1-GFP); experiment: Proliferation assay in BRCA-1 silenced HeLa cells; format: cell-based; conditions: Homo sapiens; BRCA1 silenced HeLa cells, 168 hours; read-out: CC50 in the BRCA1 silenced HeLa cells
Procedure, shortened: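 HeLa cells with lentiviral shRNA BRCA1 knockdown (>80%), compared with control-vector HeLa, seeded at 300 cells/well. Compound exposure lasted 168 h at 37° C. Viability was read as resazurin-to-resorufin fluorescence (ex 550/em 590 nm).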

PARP-1 = target: T1, PARP-1 (Homo sapiens, UniProt P09874); experiment: PARP-1 SPA assay; format: biochemical
T1 construct: purchased Trevigen 4668-500-01
T1 sequence (P09874 whole entry): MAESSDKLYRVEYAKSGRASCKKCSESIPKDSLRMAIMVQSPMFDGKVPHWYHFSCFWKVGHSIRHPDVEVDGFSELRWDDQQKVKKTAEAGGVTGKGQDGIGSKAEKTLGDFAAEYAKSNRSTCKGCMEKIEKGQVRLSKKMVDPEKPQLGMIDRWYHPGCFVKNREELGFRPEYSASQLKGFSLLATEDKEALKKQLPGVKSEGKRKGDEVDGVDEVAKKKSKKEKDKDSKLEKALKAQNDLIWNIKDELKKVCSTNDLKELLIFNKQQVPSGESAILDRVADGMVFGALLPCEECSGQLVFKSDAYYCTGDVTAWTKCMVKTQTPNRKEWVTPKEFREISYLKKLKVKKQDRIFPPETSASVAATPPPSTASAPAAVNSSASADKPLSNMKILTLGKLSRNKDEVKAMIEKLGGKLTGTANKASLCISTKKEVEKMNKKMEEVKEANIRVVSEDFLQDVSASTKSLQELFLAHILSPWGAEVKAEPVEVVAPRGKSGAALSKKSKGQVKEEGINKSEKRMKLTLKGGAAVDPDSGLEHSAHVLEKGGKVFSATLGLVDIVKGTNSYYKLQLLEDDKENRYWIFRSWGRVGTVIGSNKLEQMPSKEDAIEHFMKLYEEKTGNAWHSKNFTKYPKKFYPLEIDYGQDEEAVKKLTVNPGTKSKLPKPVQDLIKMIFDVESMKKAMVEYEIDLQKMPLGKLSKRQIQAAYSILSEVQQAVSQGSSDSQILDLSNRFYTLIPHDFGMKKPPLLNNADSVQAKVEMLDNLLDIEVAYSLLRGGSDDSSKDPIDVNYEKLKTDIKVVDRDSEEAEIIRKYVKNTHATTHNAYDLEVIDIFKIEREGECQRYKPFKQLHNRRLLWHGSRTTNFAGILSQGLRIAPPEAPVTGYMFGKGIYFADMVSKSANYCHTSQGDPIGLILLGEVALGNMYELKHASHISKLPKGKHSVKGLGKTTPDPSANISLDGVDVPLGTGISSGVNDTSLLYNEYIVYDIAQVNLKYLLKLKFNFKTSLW
Experimental: Assay buffer: 100 mM Tris pH 8, 4 mM MgCl2, 4 mM Spermine, 200 mM KCl, 0.04% Nonidet P-40.
Nicotinamide-adenine dinucleotide (NAD)/DNA Mix: [^3H-NAD] (250 uCi/ml, 0.4 ul, Perkin-Elmer NET-443H), NAD (1.5 mM, 0.05 ul, SIGMA N-1511), Biotinylated-NAD (250 uM, 0.03 ul, Trevigen 4670-500-01), Activated calf thymus (1 mg/ml, 0.05 ul, Amersham Biosciences 27-4575), H2O (to 10 ul).
Developing Mix: Streptavidin SPA beads (5 mg/ml, Amersham Biosciences RPNQ 0007) dissolved in 500 mM EDTA.
The reaction is performed in 96-well microplate with a final volume of 50 uL/well. Add 5 ul 5% DMSO/compound solution, add enzyme mix (35 ul), start the reaction by adding NAD/DNA mix (10 uL) and incubate for 2 hrs at RT. Stop the reaction by adding developing mix (25 ul) and incubate 15 min at RT. Measure using a Packard TOP COUNT instrument.

SMILES | IC50 (PARP-1) | CC50 [1]
C[C@@H]1CCC[C@H]2CN(C(=O)c3cc(Cc4cc(C(F)(F)F)c(=O)[nH]n4)ccc3F)CC(=O)N21 (racemic) [Example 87, 6-{4-Fluoro-3-[(cis-6-methyl-4-oxooctahydro-2H-pyrido[1,2-a]pyrazin-2-yl)carbonyl]benzyl}-3-oxo-4-(trifluoromethyl)-2,3-dihydropyridazin-1-ium trifluoroacetate] | 5 to 25 nM | < 50 nM
O=C(c1cc(Cc2cc(C(F)(F)F)c(=O)[nH]n2)ccc1F)N1CC(=O)N2CCCCC2C1 (racemic) [Example 91, 2-(2-Fluoro-5-{[6-oxo-5-(trifluoromethyl)-1,6-dihydropyridazin-3-yl]methyl}benzoyl)octahydro-4H-pyrido[1,2-a]pyrazin-4-one] | 5 to 25 nM | 50 to 500 nM
Cc1c(Cc2ccc(F)c(C(=O)N3CC(=O)N(c4ccccc4)[C@@H](C)C3)c2)n[nH]c(=O)c1C (single isomer, unassigned) [78 (LL4A)] | 5 to 25 nM | 50 to 500 nM
O=C(c1cc(Cc2cc(C(F)(F)F)c(=O)[nH]n2)ccc1F)N1CC(=O)N2CCCC[C@H]2C1 (single isomer, unassigned) [92 (ZZ1)] | < 5 nM | < 5000 nM
O=C(c1cc(Cc2cc(C(F)(F)F)c(=O)[nH]n2)ccc1F)N1CC(=O)N2CCCC[C@@H]2C1 (single isomer, unassigned) [92 (ZZ2)] | 5 to 25 nM | 50 to 500 nM
Cc1c(Cc2ccc(F)c(C(=O)N3CC(=O)N4CCCCC4C3)c2)n[nH]c(=O)c1C (stereo not drawn) [Example 32, 6-{4-Fluoro-3-[(4-oxooctahydro-2H-pyrido[1,2-a]pyrazin-2-yl)carbonyl]benzyl}-4,5-dimethyl-3-oxo-2,3-dihydropyridazin-1-ium trifluoroacetate] | 5 to 25 nM | < 50 nM
O=C(c1cc(Cc2cc(C(F)(F)F)c(=O)[nH]n2)ccc1F)N1CCN(C2CCCC2)C(=O)C1 [Example 33, 6-{3-[(4-Cyclopentyl-3-oxopiperazin-1-yl)carbonyl]-4-fluorobenzyl}-3-oxo-4-(trifluoromethyl)-2,3-dihydropyridazin-1-ium trifluoroacetate] | < 5 nM | 50 to 500 nM
Cc1c(Cc2ccc(F)c(C(=O)N3CCN(C4CCCCC4)C(=O)C3C)c2)n[nH]c(=O)c1C (stereo not drawn) [Example 35, 6-{3-[(4-Cyclohexyl-2-methyl-3-oxopiperazin-1-yl)carbonyl]-4-fluorobenzyl}-4,5-dimethyl-3-oxo-2,3-dihydropyridazin-1-ium trifluoroacetate] | 5 to 25 nM | < 5000 nM
Cc1c(Cc2ccc(F)c(C(=O)N3CCC(=O)N(C(C)C)CC3)c2)n[nH]c(=O)c1C [Example 36, 6-{4-Fluoro-3-[(4-isopropyl-5-oxo-1,4-diazepan-1-yl)carbonyl]benzyl}-4,5-dimethyl-3-oxo-2,3-dihydropyridazin-1-ium trifluoroacetate] | 5 to 25 nM | < 5000 nM
Cc1c(Cc2ccc(F)c(C(=O)N3CCN(c4cccnc4)C(=O)C3)c2)n[nH]c(=O)c1C [Example 38, 6-{4-Fluoro-3-[(3-oxo-4-pyridin-3-ylpiperazin-1-yl)carbonyl]benzyl}-4,5-dimethylpyridazin-3(2H)-one] | < 5 nM | 50 to 500 nM
Cc1c(Cc2ccc(F)c(C(=O)N3CCN(C4CCC(F)(F)CC4)C(=O)C3)c2)n[nH]c(=O)c1C [Example 48, 6-(3-{[4-(4,4-Difluorocyclohexyl)-3-oxopiperazin-1-yl]carbonyl}-4-fluorobenzyl)-4,5-dimethyl-3-oxo-2,3-dihydropyridazin-1-ium trifluoroacetate] | 5 to 25 nM | 50 to 500 nM
Cc1c(Cc2ccc(F)c(C(=O)N3CCN(C4CCC(F)(F)C4)C(=O)C3)c2)n[nH]c(=O)c1C (stereo not drawn) [Example 49, 6-(3-{[4-(3,3-Difluorocyclopentyl)-3-oxopiperazin-1-yl]carbonyl}-4-fluorobenzyl)-4,5-dimethyl-3-oxo-2,3-dihydropyridazin-1-ium trifluoroacetate] | < 5 nM | < 50 nM
Cc1c(Cc2ccc(F)c(C(=O)N3CCN(C45CC(C4)C5)C(=O)C3)c2)n[nH]c(=O)c1C [Example 52, 6-{3-[(4-Bicyclo[1.1.1]pent-1-yl-3-oxopiperazin-1-yl)carbonyl]-4-fluorobenzyl}-4,5-dimethyl-3-oxo-2,3-dihydropyridazin-1-ium trifluoroacetate] | 5 to 25 nM | 50 to 500 nM

Continued, in another order:

IC50 (PARP-1) | SMILES | CC50 [1]
< 5 nM | Cc1c(Cc2ccc(F)c(C(=O)N3CCN([C@H]4CC[C@@H](F)C4)C(=O)C3)c2)n[nH]c(=O)c1C (relative stereo) [Example 80, cis-3-{4-Fluoro-3-[4-(3-fluoro-cyclopentyl)-3-oxo-piperazine-1-carbonyl]-benzyl}-4,5-dimethyl-6-oxo-1,6-dihydro-pyridazin-1-ium trifluoroacetate] | 50 to 500 nM
< 5 nM | Cc1c(Cc2ccc(F)c(C(=O)N3CC(=O)N(c4ccccc4)[C@H](C)C3)c2)n[nH]c(=O)c1C (single isomer, unassigned) [Example 78 (LL4B)] | < 50 nM
5 to 25 nM | Cc1c(Cc2ccc(F)c(C(=O)N3CCN(c4ccccn4)C(=O)C3)c2)n[nH]c(=O)c1C [Example 31, 3-{4-Fluoro-3-[(3-oxo-4-pyridin-2-ylpiperazin-1-yl)carbonyl]benzyl}-4,5-dimethyl-6-oxo-1,6-dihydropyridazin-1-ium trifluoroacetate] | < 5000 nM
< 5 nM | CCc1c(Cc2ccc(F)c(C(=O)N3CCN(C4CCCCC4)C(=O)C3)c2)n[nH]c(=O)c1C(F)(F)F [Example 39, 6-{3-[(4-Cyclohexyl-3-oxopiperazin-1-yl)carbonyl]-4-fluorobenzyl}-5-ethyl-4-(trifluoromethyl)pyridazin-3(2H)-one trifluoroacetate] | < 50 nM
5 to 25 nM | Cc1c(Cc2ccc(F)c(C(=O)N3CCN(c4ccc(F)cc4)C(=O)C3)c2)n[nH]c(=O)c1C [Example 40, 6-(4-Fluoro-3-{[4-(4-fluorophenyl)-3-oxopiperazin-1-yl]carbonyl}benzyl)-4,5-dimethyl-3-oxo-2,3-dihydropyridazin-1-ium trifluoroacetate] | 50 to 500 nM
5 to 25 nM | Cc1c(Cc2ccc(F)c(C(=O)N3CCN(C4CCC(C)(C)CC4)C(=O)C3)c2)n[nH]c(=O)c1C [Example 50, 6-(3-{[4-(4,4-Dimethylcyclohexyl)-3-oxopiperazin-1-yl]carbonyl}-4-fluorobenzyl)-4,5-dimethyl-3-oxo-2,3-dihydropyridazin-1-ium trifluoroacetate] | < 50 nM
5 to 25 nM | Cc1c(Cc2ccc(F)c(C(=O)N3CCN(C4CCCC(C)(C)C4)C(=O)C3)c2)n[nH]c(=O)c1C (stereo not drawn) [Example 51, 6-(3-{[4-(3,3-Dimethylcyclohexyl)-3-oxopiperazin-1-yl]carbonyl}-4-fluorobenzyl)-4,5-dimethyl-3-oxo-2,3-dihydropyridazin-1-ium trifluoroacetate] | 50 to 500 nM
5 to 25 nM | Cc1c(Cc2ccc(F)c(C(=O)N3CCN(CC4CCCc5ccccc54)C(=O)C3)c2)n[nH]c(=O)c1C (stereo not drawn) [Example 53, 6-(4-Fluoro-3-{[3-oxo-4-(1,2,3,4-tetrahydronaphthalen-1-ylmethyl)piperazin-1-yl]carbonyl}benzyl)-4,5-dimethyl-3-oxo-2,3-dihydropyridazin-1-ium trifluoroacetate] | 50 to 500 nM

— patent US8268827B2, “Pyridazinone derivatives as PARP inhibitors” (Istituto di Ricerche di Biologia Molecolare P. Angeletti …, priority 2007, dated 2012)
